Measurements taken from patent publication EP2364976B1, “S1P receptor modulating compounds and use thereof” (EPIX Pharmaceuticals, Inc., priority 2007, dated 2007).
“And” between values parts separate entries of the source, which are not always exact repeats. Equal entries are not always repeated. Structures can show the parent of a compound that is named as a salt.

Target: T1, hS1P1 (Homo sapiens, UniProt P21453)
T1 construct: expressed in transfected cells
Experiment: hS1P1 EC50 (S1P receptor Ca2+ flux protocol, FLIPR, CHO K1 Gqi5 cells)
Assay type: cell-based
Details: several values per compound = repeat determinations as printed
How it was run: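 Calcium flux (FLIPR) in CHO K1 cells stably expressing Gqi5 and N-terminally V5-tagged human S1P1, loaded with calcium dye 90 min at RT. Peak fluorescence recorded 90 s after compound addition (10-point 3x dilution, 0.25% DMSO), normalized to 200 nM S1P (100%) and buffer (0%); EC50 from 4-parameter fit.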

T1 sequence (P21453 whole entry): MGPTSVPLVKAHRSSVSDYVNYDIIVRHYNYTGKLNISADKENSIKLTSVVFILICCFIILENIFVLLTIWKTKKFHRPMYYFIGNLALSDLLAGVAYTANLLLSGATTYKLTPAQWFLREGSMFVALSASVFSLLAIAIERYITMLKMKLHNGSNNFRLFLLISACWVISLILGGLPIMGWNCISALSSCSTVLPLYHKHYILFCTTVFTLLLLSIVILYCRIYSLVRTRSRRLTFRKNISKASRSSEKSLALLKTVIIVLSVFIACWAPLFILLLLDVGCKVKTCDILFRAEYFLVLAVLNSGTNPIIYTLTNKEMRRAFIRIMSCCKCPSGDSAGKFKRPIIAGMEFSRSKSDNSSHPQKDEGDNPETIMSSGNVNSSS

Question: `O=C(O)C1CCN(Cc2ccc(-c3cc4cc(Cc5ccccc5)ccc4o3)c(F)c2)C1` (racemic) [Reference Compound 41] was tested. Which EC50 did it give?
Answer: 315 nM

Question: `CC(C)(c1ccccc1)c1ccc2oc(-c3ccc(CN4CC(C(=O)O)C4)cc3F)cc2c1` [Reference Compound 97, 1-((3-Fluoro-4-(5-(2-phenylpropan-2-yl)benzofuran-2-yl)phenyl)methyl)azetidine-3-carboxylic acid] was tested. Which EC50 did it give?
Answer: 365 nM

Question: For `Cc1cc(CN2CC(C(=O)O)C2)ccc1-c1cc2cc(Cc3ccccc3)ccc2o1` [Reference Compound 43, 1-((4-(5-Benzylbenzofuran-2-yl)-3-methylphenyl)methyl)azetidine-3-carboxylic acid], which EC50 is on record?
Answer: 241 nM

Question: For `O=C(O)C1CN(Cc2ccc(-c3nc4ccc(Cc5ccccc5)cc4o3)c(F)c2)C1` [Reference Compound 111, 1-((4-(6-Benzylbenzo[d]oxazol-2-yl)-3-fluorophenyl)methyl)azetidine-3-carboxylic acid], which EC50 is on record?
Answer: 8 nM

Question: For `O=C(O)C1CN(Cc2ccc(-c3nc4ccc(Cc5ccccc5)cc4[nH]3)c(F)c2)C1` [Reference Compound 115, 1-((4-(5-Benzyl-1H-benzo[d]imidazol-2-yl)-3-fluorophenyl)methyl)azetidine-3-carboxylic acid], which EC50 is on record?
Answer: 4950 nM

Question: For `O=C(O)CCNCc1ccc(-c2cc3cc(C4CCCC4)ccc3o2)c(F)c1` [Reference Compound 58, 3-(4-(5-cyclopentylbenzofuran-2-yl)-3-fluorobenzylamino)propanoic acid], which EC50 is on record?
Answer: 1070 nM

Question: `O=C(O)C1CN(Cc2ccc(-c3cc4cc(Oc5ccccc5)ccc4o3)cc2)C1` [Reference Compound 19, 1-(4-(5-phenoxybenzofuran-2-yl)benzyl)azetidine-3-carboxylic acid] was tested. Which EC50 did it give?
Answer: 510 nM and 92 nM

Question: `O=C(O)C1CN(Cc2ccc(-c3cc4cc(COCC5CC5)ccc4o3)c(F)c2)C1` [Reference Compound 66] was tested. Which EC50 did it give?
Answer: 75 nM

Question: For `O=C(O)C1CCN(Cc2ccc(-c3cc4cc(Cc5ccccc5)ccc4o3)cc2)CC1` [Reference Compound 9, 1-(4-(5-Benzylbenzofuran-2-yl)phenyl)methyl piperldine4-carboxylic acid], which EC50 is on record?
Answer: 4800 nM

Question: Which EC50 does the source give for `O=C(O)C1CN(Cc2ccc(-c3cc4cc(CC5CCCCC5)ccc4o3)c(F)c2)C1` [Reference Compound 74, 1-(4-(5-(Cyclohexylmethyl)benzofuran-2-yl)-3-fluorobenzyl)azetidine-3-carboxylic acid] here?
Answer: 400 nM

Question: For `O=C(O)C1CN(Cc2ccc(-c3cc4cc(CCc5ccccc5)ccc4o3)cc2)C1` [Reference Compound 11, 1-((4-(5-phenethylbenzofaran-2-yl)phenyl)methyl)azetidine-3-carboxylic acid], which EC50 is on record?
Answer: 580 nM

Question: With `O=C(O)C1CN(Cc2ccc(-c3cn4ccc(Cc5ccccc5)cc4n3)c(F)c2)C1` [Inventive Compound 119, 1-(4-(7-Benzyl-1H-imidazo[1,2-a]pyridin-2-yl)-3-fluorobenzyl)azetidine-3-carboxylic acid, trifluoroacetic acid salt] as the compound, how does the EC50 read?
Answer: 54 nM

Question: With `Cc1nc(-c2cc3cc(Cc4ccccc4)ccc3o2)ccc1CN1CC(C(=O)O)C1` [Reference Compound 122, 1-((6-(5-Benzylbenzofuran-2-yl)-2-methylpyridin-3-yl)methyl)azetidine-3-carboxylic acid] as the compound, how does the EC50 read?
Answer: 420 nM

Question: Which EC50 does the source give for `CCCCc1ccc2oc(-c3ccc(CN4CCC(C(=O)O)CC4)cc3)cc2c1` [Reference Compound 8, 1-((4-(5-Butylbenzofuran-2yl)phenyl)methyl)pineridine-4-carbocylic acid] here?
Answer: 3100 nM

Question: For `O=C(O)C1CN(Cc2ccc(-c3cc4cc(COc5ccccc5)ccc4o3)c(F)c2)C1` [Reference Compound 69, 1-(3-Fluoro-4-(5-(phenoxymethyl)benzofuran-2-yl)benzyl)azetidine-3-carboxylic acid], which EC50 is on record?
Answer: 87 nM

Question: With `O=C(O)C1CN(Cc2ccc(-c3cc4cc(Cc5ccccc5)ncc4o3)c(F)c2)C1` [Reference Compound 108, 1-((4-(5-Benzylfuro[2,3-c]pyridin-2-yl)-3-fluorophenyl)methyl)azetidine-3-carboxylic acid] as the compound, how does the EC50 read?
Answer: 409 nM

Question: Which EC50 does the source give for `O=C(O)C1(O)CN(Cc2ccc(-c3cc4cc(Cc5ccccc5)ccc4o3)c(F)c2)C1` [Reference Compound 88, 1-((4-(5-Benzylbenzofuran-2-yl)-3-fluorophenyl)methyl)-3-hydroxyazetidine-3-carboxylic acid] here?
Answer: 105 nM

Question: How did the EC50 turn out when `O=C(O)C1CN(Cc2ccc(-c3cc4cc(Cc5ccccc5)ccc4o3)nc2)C1` [Reference Compound 32, 1-((6-(5-benzylbenzofuran-2-yl)pyridin-3-yl)methyl)azetidine-3-carboxylic acid] was run?
Answer: 2600 nM and 516 nM

Question: Which EC50 does the source give for `O=C(O)C1CN(Cc2ccc(-c3cc4cc(OCC5CCCC5)ccc4o3)c(F)c2)CCO1` (stereo not drawn) [Reference Compound 55, 4-((4-(5-(cyclopentylmethoxy)benzofuran-2-yl)-3-fluorophenyl)methyl)morpholine-2-carboxylic acid] here?
Answer: > 25000 nM

Question: Which EC50 does the source give for `O=C(O)C1CN(Cc2ccc(-c3cc4cc(C5CCCCC5)ccc4o3)c(F)c2)C1` [Reference Compound 27] here?
Answer: 160 nM and 361 nM

Question: `O=C(O)C1CN(Cc2ccc(-c3cc4cc(C5CCCC5)ccc4o3)cc2)C1` [Reference Compound 30, 1-(4-(5-cyclopentylbenzofuran-2-yl)benzyl)azetidine-3-carboxylic acid] was tested. Which EC50 did it give?
Answer: 210 nM

Question: Which EC50 does the source give for `CC(c1ccc(-c2cc3cc(Cc4ccccc4)ccc3o2)c(F)c1)N1CC(C(=O)O)C1` (stereo not drawn) [Reference Compound 123, 1-(1-(4-(5-benzylbenzofuran-2-yl)-3-fluorophenyl)ethyl)azetidine-3-carboxylic acid] here?
Answer: 313 nM

Question: With `O=C(O)C1CN(Cc2ccc(-c3cc4cc(-c5cccnc5)ccc4o3)cc2)C1` [Reference Compound 12, 1-(4-(5-(pyridin-3-yl)benzofuran-2-yl)benzyl)azetidine-3-carboxylic acid] as the compound, how does the EC50 read?
Answer: 3600 nM

Question: Which EC50 does the source give for `O=C(O)C1(O)CN(Cc2ccc(-c3nc4cc(Cc5ccccc5)ccc4s3)c(F)c2)C1` [Reference Compound 89, 1-((4-(5-Benzylbenzo[d]thiazol-2-yl)-3-fluorophenyl)methyl)-3-hydroxyazetidine-3-carboxylic acid] here?
Answer: 27 nM

Question: Which EC50 does the source give for `O=C(O)C1CN(Cc2ccc(-c3cc4nc(Cc5ccccc5)ccc4o3)c(F)c2)C1` [Reference Compound 109, 1-((4-(5-Benzylfuro[3,2-b]pyridin-2-yl)-3-fluorophenyl)methyl)azetidine-3-carboxylic acid] here?
Answer: 409 nM

Question: `O=C(O)C1CN(Cc2ccc(-c3cc4cc(Oc5ccccc5)ccc4o3)c(F)c2)C1` [Reference Compound 77, 1-(3-Fluoro-4-(5-phenoxybenzofuran-2-yl)benzyl)azetidine-3-carboxylic acid] was tested. Which EC50 did it give?
Answer: 13 nM

Question: Which EC50 does the source give for `O=C(O)C1CN(Cc2ccc(-c3cc4cc(N5CCCCC5)ccc4o3)cc2)C1` [Reference Compound 34, 1-(4-(5-(piperidin-1-yl)benzofuran-2-yl)benzyl)azetidine-3-carboxylic acid] here?
Answer: 1500 nM
